The source of these data is patent publication US8329738B2, “Use of AMPK-activating imidazole derivatives, preparation process therefor and pharmaceutical compositions comprising them” (Merck Patent Gesellschaft mit Beschränkter Haftung, priority 2006, dated 2012).

In one series the test system is AMPK. The series can be described thus: AMPK activation: phosphorylation of peptide AMARAA, Delfia protocol. Format: biochemical. Conditions: relative to the basal activity (100%) obtained in the absence of AMP, partially purified AMPK from rat liver. The protocol: 25 mU of AMPK are incubated in the presence of different concentrations of AMP or of products, for 30 minutes at 30° C., in a final volume of 30 μl comprising 50 mM Hepes, 19 mM MgCl2, 125 μM ATP, 5 mM NaPPi, 1 mM EDTA, 1 mM DTT, 2 mM Na3VO4 and 25 μM of peptide AMARAA biotinyl (Biot-NH-AMARAASAAALARRR-COOH).
The phosphorylation of the peptide AMARAA is then measured according to a Delfia protocol (Perkin-Elmer), using a europium-labelled anti-phospho-serine specific antibody.
The AMPK used in this test is a partially purified protein from rat liver.
The percentage of activation is calculated relative to the basal activity (100%) obtained in the absence of AMP.
For `COc1ccc(NC(=O)Nc2ccc(Cn3cnc(O)c3C(N)=O)cc2)cc1` [Example 43, 5-hydroxy-3-{4-[3-(4-methoxyphenyl)ureido]benzyl}-3H-imidazole-4-carboxamide], the “% Activation at 200 μM” value is 229%.
On the same count and under the same terms, the same measure for `CSc1ccc(NC(=O)Nc2ccc(Cn3cnc(O)c3C(N)=O)cc2)cc1` [Example 58, 5-hydroxy-3-{4-[3-(4-methylsulfanylphenyl)ureido]benzyl}-3H-imidazole-4-carboxamide]: 311%; for `NC(=O)c1c(O)ncn1Cc1ccc(NC(=O)Nc2ccc(Cl)cc2)cc1` [Example 44, 5-hydroxy-3-{4-[3-(4-chlorophenyl)ureido]benzyl}-3H-imidazole-4-carboxamide]: 147%; for `CCc1ccc(NC(=O)Nc2ccc(Cn3cnc(O)c3C(N)=O)cc2)cc1` [Example 56, 5-hydroxy-3-{4-[3-(4-ethylphenyl)ureido]benzyl}-3H-imidazole-4-carboxamide]: 289%.
Turning to `NC(=O)c1c(O)ncn1Cc1ccc(NC(=O)Nc2cccc3ccccc23)cc1` [Example 47, 5-hydroxy-3-[4-(3-naphthalen-1-ylureido)benzyl]-3H-imidazole-4-carboxamide], the “% Activation at 200 μM” value amounted to 184%.

Tested on in the next series: not given
Test: not given
Settings: not given
The compound `CCOC(=O)c1ncn(CCOc2ccc(F)cc2)c1O` [Example 7, ethyl 5-hydroxy-1-[2-(-4-fluorophenoxy)ethyl]-1H-imidazole-4-carboxylate] had a melting point of 200 °C.
Same read-out and setting: the same measure for `NC(=O)c1c(O)ncn1Cc1ccc(Cl)cc1` [Example 11, 5-hydroxy-3(4-chlorobenzyl)imidazole 4-carboxamide]: 206 to 212 °C; for `NC(=O)c1ncn(CCOc2ccc(F)cc2)c1O` [Example 1, 1-[2-(4-fluorophenoxy)ethyl]-5-hydroxy-1H-imidazole-4-carboxamide]: 204 °C; for `CCOC(=O)c1ncn(CCOc2ccc(C(=O)OC)cc2)c1O` [Example 8, ethyl 5-hydroxy-1-{2-[-4(methoxycarbonyl)phenoxy]ethyl}-1H-imidazole-4-carboxylate]: 202 °C.
The same measure, in the same setting: the result for `COc1ncn(Cc2ccc([N+](=O)[O-])cc2)c1C(N)=O` [Example 19, 3-(4-nitrobenzyl)-5-methoxy-3H-imidazole-4-carboxamide] reads 201 to 203 °C.
Take `NC(=O)c1ncn(CCOc2ccccc2)c1O` [Example 2, 5-hydroxy-1-(2-phenoxyethyl)-1H-imidazole-4-carboxamide]: the melting point is 192 °C.
Still for that read-out and setting: the same measure for `CCOC(=O)c1ncn(CCOc2ccc(C#N)cc2)c1O` [Example 6, ethyl 5-hydroxy-1-[2-(-4-cyanophenoxy)ethyl]-1H-imidazole-4-carboxylate]: 190 °C; for `NC(=O)c1c(O)ncn1Cc1ccc(N)cc1` [Example 18, 3-(4-aminobenzyl)-5-hydroxy-3H-imidazole-4-carboxamide]: 230 to 231 °C.
As for `COc1cccc(C(=O)Nc2ccc(Cn3cnc(O)c3C(N)=O)cc2)c1` [Example 21, 5-hydroxy-3-[4-(3-methoxybenzoylamino)benzyl]-3H-imidazole-4-carboxamide], the melting point lay within 257 to 259 °C.
Consider `NC(=O)Nc1ccc(Cn2cnc(O)c2C(N)=O)cc1` [Example 42, 5-hydroxy-3-[4-ureidobenzyl]-3H-imidazole-4-carboxamide], for which the melting point fell in the range of 243 to 244 °C.
The same measure, in the same setting: the same measure for `NC(=O)c1c(O)ncn1-c1ccccc1` [Example 13, 5-hydroxy-3-phenylimidazole-4-carboxamide]: 182 °C; for `NC(=O)c1c(OCc2ccccc2)ncn1Cc1ccc([N+](=O)[O-])cc1` [Example 20, 3-(4-nitrobenzyl)-5-benzyloxy-3H-imidazole-4-carboxamide]: 193 to 195 °C.
Same read-out and setting: the result for `N#Cc1ccc(OCCn2cnc(O)c2C(N)=O)cc1` [Example 16, 3-[2-(4-cyanophenoxy)ethyl]-5-hydroxy-3H-imidazole-4-carboxamide] reads 264 °C; that for `NC(=O)c1c(O)ncn1Cc1ccc(NC(=O)Nc2ccccc2)cc1` [Example 41, 5-hydroxy-3-[4-(3-phenylureido)benzyl]-3H-imidazole-4-carboxamide], 232 to 235 °C; that for `NC(=O)c1c(O)ncn1CCOc1ccc(F)cc1` [Example 15, 3-[2-(4-fluorophenoxy)ethyl]-5-hydroxy-3H-imidazole-4-carboxamide], 230 °C.
As for `CCOC(=O)c1ccc(Cn2cnc(O)c2C(N)=O)cc1` [Example 12, 5-hydroxy-3-[4-(ethoxycarbonyl)benzyl]imidazole-4-carboxamide], the melting point fell in the range of 266 to 268 °C.
Same read-out and setting: the same measure for `COC(=O)c1ccc(OCCn2cnc(C(N)=O)c2O)cc1` [Example 4, methyl 4-[2-(4-carbamoyl-5-hydroxyimidazol-1-yl)ethoxy]benzoate]: 190 °C; for `COC(=O)c1ccc(OCCn2cnc(O)c2C(N)=O)cc1` [Example 16b is, methyl 4-[2-(5-carbamoyl-4-hydroxyimidazol-1-yl)ethoxy]-benzoate]: 263 °C; for `CCOC(=O)c1ncn(Cc2ccccc2)c1OC` [Example 9, ethyl 1-benzyl-5-methoxy-1H-imidazole-4-carboxylate]: 150 to 153 °C.
The compound `NC(=O)c1c(O)ncn1Cc1ccc(F)cc1` [Example 10, 5-hydroxy-3-(4-fluorobenzyl)imidazole-4-carboxamide] showed a melting point of 230 to 234 °C.
The compound `N#Cc1ccc(OCCn2cnc(C(N)=O)c2O)cc1` [Example 3, 1-[2-(4-cyanophenoxy)ethyl]-5-hydroxy-1H-imidazole-4-carboxamide] registered a melting point of 190 °C.
`NC(=O)c1c(O)ncn1Cc1ccc(NC(=O)Nc2cccc(C(=O)O)c2)cc1` [Example 70, 3-{3-[4-(5-carbamoyl-4-hydroxyimidazol-1-ylmethyl)phenyl]ureido}benzoic acid] showed a melting point of 218 to 220 °C.
